Six compounds from patent US5235061A, “Fungicidal (1H-1,2,4-triazolyl)disilaalkanes” (priority 1991, dated 1993) can be followed below.

Common to all, as to experiment: In vitro percent disease control (radii of spore growth on agar)
What all share (type): cell-based

One data set relates to Glomerella cingulata. The conditions noted are these: Colletotrichum gloeosporioides, read-out: % controlled, Glo. Put shortly:
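Compounds were dissolved in acetone (10% of final volume) plus water at 100 ppm and 50 ppm and mixed into potato-sucrose agar. G. cingulata was spotted centrally and incubated for several days in a growth room. Percent disease control was derived from the radii of spore growth.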

Another data set has as its system Rhizoctonia solani. As to conditions: Rhizoctonia solani, read-out: % controlled, Rhy. so. Put shortly: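 Test compounds at 100 ppm and 50 ppm (acetone 10% of final volume, then water) were mixed into potato-sucrose-agar, and the fungus was spotted at the dish centre. Dishes were incubated several days in a growth room. Percent disease control was derived from the radii of spore growth.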

In a further data set the test system is Fusarium moniliforme. Put shortly: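 Compounds in 10% acetone/water at 100 and 50 ppm were mixed into potato-sucrose-agar, with Fusarium moniliforme spotted centrally. After several days' incubation, percent disease control was derived from radii of spore growth.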
Data set [1] has as its system Botryosphaeria dothidea Macrophoma sp. The conditions noted are these: Botryosphaeria dothidea, read-out: % controlled, Bo.do (Ma.). Put shortly: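 Compounds (100 and 50 ppm, 10% acetone in water) were mixed into potato-sucrose-agar and the fungus was spotted centrally, then incubated several days in a growth room. Percent disease control came from radii of spore growth.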

The subject of the next data set is Physalospora baccae. The conditions noted are these: read-out: % controlled, Phy ba. The method, boiled down:
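Compounds at 100 and 50 ppm (10% acetone) mixed into potato-sucrose-agar, fungus spotted centrally and grown several days in a growth room. Percent disease control derived from radii of spore growth.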

In another data set the test system is Phytophthora capsisi. The conditions noted are these: Phytophthora, read-out: % controlled, Phy ca. Put shortly: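 Compounds dissolved in acetone (10% of final volume) then water at 100 ppm and 50 ppm, mixed into potato-sucrose-agar; fungus spotted at plate centre and incubated several days. Percent disease control derived from radii of spore growth.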
The next data set has as its system Alternaria mali. The conditions noted are these: Alternaria mali, read-out: % controlled, Al. Put shortly: (§1)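 Compounds in acetone (10% of final volume) diluted with water to 100 and 50 ppm, then mixed into potato-sucrose-agar with each fungus spotted centrally. Incubated several days in a growth room; percent disease control derived from radii of spore growth.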

A further data set concerns Rhizopus sp. The conditions noted are these: Rhizopus. Put shortly: as §1
A further data set concerns Botry tris cinerea. The conditions noted are these: read-out: % controlled, Bo ci. The method, boiled down:
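Compounds at 100 and 50 ppm (acetone 10% of final volume, rest water) mixed into potato-sucrose agar; Botrytis cinerea spotted at dish centre. After several days' incubation, percent disease control calculated from radii of spore growth.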

The test system of another data set is Pyricalaria oryzae. As to conditions: for inhibition of growth at 50 ppm: read-out: % controlled, Py. or., 50 ppm; for inhibition of growth at 100 ppm: read-out: % controlled, Py. or., 100 ppm. The method, boiled down: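 Compounds at 100 ppm and 50 ppm (10% acetone in water) mixed into potato-sucrose-agar, P. oryzae spotted centrally and incubated several days. Percent disease control derived from radii of spore growth.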

The mark [2] stands for this setting: 50 ppm, read-out: % controlled, Rhi. sp.
[3] abbreviates: read-out: % controlled, Rhi. sp.

Where two headings read alike, the source gives them in different places.

`C=CC[Si](C[Si](C)(Cn1cncn1)c1ccc(F)cc1)(c1ccc(F)cc1)c1ccc(F)cc1` (stereo not drawn) [4,4,6-tris(4-fluorophenyl)-6-methyl-4,6-disila-7-(1H-1,2,4-triazole-1-yl)-1-heptane]: the inhibition of growth at 50 ppm was 71% with Glomerella cingulata; 78% in the data set on Rhizoctonia solani; 74% in data set [1]; 53% in the data set on Physalospora baccae; 50% in the data set with Phytophthora capsisi; 63% in the data set with Alternaria mali. In addition, the values for the inhibition of growth at 50 ppm in the data set with Rhizopus sp. (setting [2]), with Botry tris cinerea and in the data set with Pyricalaria oryzae were 19%, 69% and 100%, respectively. Besides, the inhibition of growth at 100 ppm in the data set on Glomerella cingulata is 77%; with Rhizoctonia solani, 78%; in data set [1] it was 78%; with Physalospora baccae, 74%; in the data set with Phytophthora capsisi it was 60%; in the data set with Alternaria mali it was 72%. Besides, the inhibition of growth at 100 ppm with Rhizopus sp. (setting [3]) came to 43%; in the data set on Botry tris cinerea, 66%; in the data set with Pyricalaria oryzae, 100%. Moreover, the “% controlled, Fu. mo.” value in the data set with Fusarium moniliforme (50 ppm) stood at 58%; in the data set on Fusarium moniliforme (100 ppm), 63%.
For `C[Si](C)(C[Si](Cn1cncn1)(c1ccc(F)cc1)c1ccc(F)cc1)c1ccc(Cl)cc1` [4-(4-chlorophenyl)-2,2-bis(4-fluorophenyl)-4-methyl-2,4-disila-1-(1H-1,2,4-triazol-1-yl)pentane], the inhibition of growth at 50 ppm in the data set on Glomerella cingulata was 87%; in the data set on Rhizoctonia solani, 100%; in data set [1] it was 76%; in the data set on Physalospora baccae, 80%; in the data set on Phytophthora capsisi it was 10%; in the data set with Alternaria mali, 32%. Also, the inhibition of growth at 50 ppm with Rhizopus sp. (setting [2]) amounted to 78%; with Botry tris cinerea, 76%; with Pyricalaria oryzae, 76%. In addition, the inhibition of growth at 100 ppm with Glomerella cingulata was 90%; in the data set with Rhizoctonia solani, 100%; in data set [1], 87%; in the data set on Physalospora baccae it was 100%; with Phytophthora capsisi, 12%; in the data set with Alternaria mali, 34%. Also, the inhibition of growth at 100 ppm in the data set on Rhizopus sp. (setting [3]) was determined as 89%; in the data set with Botry tris cinerea it was 80%; with Pyricalaria oryzae it was 87%. Besides, the entries for the “% controlled, Fu. mo.” value in the data set with Fusarium moniliforme (50 ppm) and in the data set with Fusarium moniliforme (100 ppm) were 45% and 56%, respectively.
`C[Si](C)(C[Si](C)(Cn1cncn1)c1ccc(F)cc1)c1ccc(Cl)cc1` (stereo not drawn) [4-(4-chlorophenyl)-2-(4-fluorophenyl)-2,4-dimethyl-2,4-disila-1-(1H-1,2,4-triazol-1-yl)pentane]: the inhibition of growth at 50 ppm worked out at 0% in the data set on Glomerella cingulata; 93% in the data set on Rhizoctonia solani; 74% in data set [1]; 78% in the data set with Physalospora baccae; 43% in the data set on Phytophthora capsisi; 84% in the data set on Alternaria mali. For the same compound, the inhibition of growth at 50 ppm with Rhizopus sp. (setting [2]) came out at 59%; with Botry tris cinerea it was 100%; in the data set with Pyricalaria oryzae, 100%. Also, the inhibition of growth at 100 ppm worked out at 0% in the data set with Glomerella cingulata; 100% with Rhizoctonia solani; 86% in data set [1]; 82% with Physalospora baccae; 54% in the data set on Phytophthora capsisi; 84% with Alternaria mali. Further, the inhibition of growth at 100 ppm in the data set with Rhizopus sp. (setting [3]) was found to be 65%; with Botry tris cinerea, 100%; in the data set on Pyricalaria oryzae, 100%. The figures for the “% controlled, Fu. mo.” value with Fusarium moniliforme (50 ppm) and with Fusarium moniliforme (100 ppm) were 67% and 69%, respectively.
On to `COc1ccc([Si](C)(Cn2cncn2)C[Si](C)(C)c2ccc(Cl)cc2)cc1` (stereo not drawn) [4-(4-chlorophenyl)-2-(4-methoxyphenyl)-2,4-dimethyl-2,4-disila-1-(1H-1,2,4-triazol-1-yl)pentane], for which the inhibition of growth at 50 ppm came out at 56% in the data set on Glomerella cingulata; 100% in the data set on Rhizoctonia solani; 34% in data set [1]; 50% in the data set on Physalospora baccae; 43% in the data set with Phytophthora capsisi; 30% with Alternaria mali. For the same compound, the inhibition of growth at 50 ppm in the data set with Rhizopus sp. (setting [2]) came out at 32%; in the data set on Botry tris cinerea it was 40%; in the data set on Pyricalaria oryzae, 100%. Also, the inhibition of growth at 100 ppm in the data set on Glomerella cingulata worked out at 82%; with Rhizoctonia solani, 100%; in [1], 66%; in the data set on Physalospora baccae, 60%; in the data set on Phytophthora capsisi it was 59%; in the data set on Alternaria mali it was 62%. Also, the inhibition of growth at 100 ppm amounted to 48% with Rhizopus sp. (setting [3]), 80% with Botry tris cinerea and 100% in the data set on Pyricalaria oryzae. Moreover, the “% controlled, Fu. mo.” value with Fusarium moniliforme (50 ppm) is 28%; in the data set with Fusarium moniliforme (100 ppm) it was 41%.
`CCOc1ccc([Si](C)(C)C[Si](C)(Cn2cncn2)c2ccc(F)cc2)cc1` (stereo not drawn) [4-(4-ethoxyphenyl)-2-(4-fluorophenyl)-2,4-dimethyl-2,4-disila-1-(1H-1,2,4-triazol-1-yl)pentane]: the inhibition of growth at 50 ppm was found to be 71% in the data set with Glomerella cingulata; 78% in the data set with Rhizoctonia solani; 74% in [1]; 53% in the data set on Physalospora baccae; 50% in the data set with Phytophthora capsisi; 63% in the data set with Alternaria mali. Also, the inhibition of growth at 50 ppm with Rhizopus sp. (read-out: % controlled, Rhi. sp., 50 ppm) came to 19%; in the data set on Botry tris cinerea, 69%; with Pyricalaria oryzae, 100%. Also, the inhibition of growth at 100 ppm with Glomerella cingulata was 77%; in the data set on Rhizoctonia solani, 78%; in data set [1] it was 78%; in the data set on Physalospora baccae it was 74%; in the data set with Phytophthora capsisi, 60%; in the data set on Alternaria mali it was 72%. The inhibition of growth at 100 ppm in the data set with Rhizopus sp. (setting [3]) stood at 43%; with Botry tris cinerea it was 66%; in the data set on Pyricalaria oryzae, 100%. Besides, the “% controlled, Fu. mo.” value with Fusarium moniliforme (50 ppm) is 58%; in the data set on Fusarium moniliforme (100 ppm), 63%.
On to `C[Si](C)(Cc1ccc(F)cc1)C[Si](C)(Cn1cncn1)c1ccc(F)cc1` (stereo not drawn) [4-(4-fluorobenzyl)-2-(4-fluorophenyl)-2,4-dimethyl-2,4-disila-1-(1H-1,2,4-triazol-1-yl)pentane], for which the inhibition of growth at 50 ppm with Glomerella cingulata was found to be 0%; in the data set with Rhizoctonia solani, 36%; in [1], 40%; in the data set with Physalospora baccae it was 26%; in the data set on Phytophthora capsisi, 3%; with Alternaria mali, 38%. Also, the values for the inhibition of growth at 50 ppm in the data set on Rhizopus sp. (setting [2]), in the data set with Botry tris cinerea and with Pyricalaria oryzae were 21%, 0% and 50%, respectively. For the same compound, the inhibition of growth at 100 ppm in the data set with Glomerella cingulata amounted to 0%; with Rhizoctonia solani, 36%; in data set [1], 49%; in the data set with Physalospora baccae it was 30%; with Phytophthora capsisi, 3%; in the data set on Alternaria mali, 43%. The inhibition of growth at 100 ppm in the data set with Rhizopus sp. (setting [3]) stood at 24%; in the data set with Botry tris cinerea, 0%; in the data set on Pyricalaria oryzae, 57%. The “% controlled, Fu. mo.” value with Fusarium moniliforme (50 ppm) is on record as 34%; in the data set on Fusarium moniliforme (100 ppm) it was 41%.
